The numbers were not newly measured in patent US20080286363A1, “Pharmaceutical Compositions for the Treatment of Inflammatory and Obstructive Airways Diseases” (priority 2005, published 2008), which cites them from elsewhere.

The conditions of the data set: aerosol formulation, single administration of a metered dose, asthma.

Turning to `C[N+]1(C)CCC(OC(=O)C(O)(c2ccccc2)C2CCCC2)C1.[Br-]` (racemic) [Compound B1, 3-[(Cyclopentyl-hydroxyphenylacetyl)oxy]-1,1-dimethylpyrrolidinium bromide], the bronchodilation duration entry is recorded as “up to 12 hours”.
